Experimental findings from patent publication US10004701B2, “Methods and compositions for treating infection” (UNIVERSITY OF ROCHESTER, priority 2012, dated 2018) are described below.

Structures can show the parent of a compound that is named as a salt. Where two headings read alike, the source gives them in different places.

Holding throughout (assay): AK assay 384-well format, Prestwick library screening
One experiment concerns E. faecium. Format: cell-based, Enterococcus faecium. Conditions: for fold induction at 50 µM: Enterococcus faecium, 3 h.
In experiment [1] the test system is A. baumannii strain 98-37-09. Format: cell-based, Acinetobacter baumannii. Conditions: for fold induction at 50 µM: Acinetobacter baumannii, 983709, 3 h.
Experiment [2] has as its system S. aureus strain USA300-0114. Format: cell-based, Staphylococcus aureus. Conditions: for fold induction at 50 µM: Staphylococcus aureus, USA300, 3 h.
Another experiment deals with K. pneumoniae. Format: cell-based, Klebsiella pneumoniae. Conditions: for fold induction at 50 µM: Klebsiella pneumoniae, 3 h.
The subject of another experiment is E. coli. Format: cell-based, Escherichia coli. Conditions: for fold induction at 50 µM: Escherichia coli, 3 h.
The next experiment relates to E. cloacae. Format: cell-based, Enterobacter cloacae. Conditions: for fold induction at 50 µM: Enterobacter cloacae, 3 h.
In the next experiment the test system is P. aeruginosa. Format: cell-based, Pseudomonas aeruginosa. Conditions: for fold induction at 50 µM: Pseudomonas aeruginosa, 3 h.
Where [3] appears, read: 50 μM final drug concentration, planktonic, cutoff for positive-scoring molecules 3-fold increase, read-out: AK-based Prestwick Library Screening Results, E. faecium (fold increase in extracellular AK activity).
Where [4] appears, read: 50 μM final drug concentration, planktonic, cutoff for positive-scoring molecules 3-fold increase, read-out: AK-based Prestwick Library Screening Results, A. baumannii (fold increase in extracellular AK activity).
The mark [5] stands for this setting: 50 μM final drug concentration, planktonic, cutoff for positive-scoring molecules 3-fold increase, read-out: AK-based Prestwick Library Screening Results, S. aureus (fold increase in extracellular AK activity).
Where [6] appears, read: 50 μM final drug concentration, planktonic, cutoff for positive-scoring molecules 3-fold increase, read-out: AK-based Prestwick Library Screening Results, K. pneumoniae (fold increase in extracellular AK activity).
[7] abbreviates: 50 μM final drug concentration, planktonic, cutoff for positive-scoring molecules 3-fold increase, read-out: AK-based Prestwick Library Screening Results, E. coli (fold increase in extracellular AK activity).
The mark [8] stands for this setting: 50 μM final drug concentration, planktonic, cutoff for positive-scoring molecules 3-fold increase, read-out: AK-based Prestwick Library Screening Results, E. cloacae (fold increase in extracellular AK activity).
[9] abbreviates: 50 μM final drug concentration, planktonic, cutoff for positive-scoring molecules 3-fold increase, read-out: AK-based Prestwick Library Screening Results, P. aeruginosa (fold increase in extracellular AK activity).
Where [10] appears, read: planktonic E. coli, 50 μM final drug concentration, 384-well, cutoff for positive-scoring molecules 3-fold increase, read-out: AK-based Prestwick Library Screening Results: E. coli (increase in extracellular AK activity).

`COCCOC(=O)C1=C(C)NC(C)=C(C(=O)OC(C)C)C1c1cccc([N+](=O)[O-])c1` (centres unmarked) [Nimodipine]: the fold induction at 50 µM in the experiment on E. faecium (setting [3]) worked out at 1; in experiment [1] (setting [4]), 1; in experiment [2] (setting [5]) it was 0.7; with K. pneumoniae (setting [6]), 0.7; in the experiment with E. coli (setting [7]), 0.9; in the experiment with E. cloacae (setting [8]), 1.4. Also, in the experiment with P. aeruginosa (setting [9]), the fold induction at 50 µM is 0.9.

As to `NCCc1c[nH]c2ccc(O)cc12` [Serotonin hydrochloride], the fold induction at 50 µM in the experiment with E. faecium (planktonic E. faecium, 50 μM final drug concentration, 384-well, […], read-out: AK-based Prestwick Library Screening Results: E. faecium (increase in extracellular AK activity)) is 0.9; in experiment [1] (planktonic A. baumannii, 50 μM final drug concentration, 384-well, […], read-out: AK-based Prestwick Library Screening Results: A. baumannii (increase in extracellular AK activity)), 0.6; in experiment [2] (planktonic S. aureus, 50 μM final drug concentration, 384-well, […], read-out: AK-based Prestwick Library Screening Results: S. aureus (increase in extracellular AK activity)), 0.6; in the experiment with K. pneumoniae (planktonic K. pneumoniae, 50 μM final drug concentration, 384-well, […], read-out: AK-based Prestwick Library Screening Results: K. pneumoniae (increase in extracellular AK activity)), 0.6; with E. coli (setting [10]) it was 0.8; in the experiment on E. cloacae (planktonic E. cloacae, 50 μM final drug concentration, 384-well, […], read-out: AK-based Prestwick Library Screening Results: E. cloacae (increase in extracellular AK activity)), 0.6. The fold induction at 50 µM with P. aeruginosa (planktonic P. aeruginosa, 50 μM final drug concentration, 384-well, […], read-out: AK-based Prestwick Library Screening Results: P. aeruginosa (increase in extracellular AK activity)) came out at 0.6.

With `CCCSc1ccc2nc(NC(=O)OC)[nH]c2c1` [Albendazole], the fold induction at 50 µM in the experiment with E. faecium (50 μM final drug concentration, 384-well format, […], read-out: AK-based Prestwick Library Screening Results, E. faecium (increase in extracellular AK activity)) was determined as 0.5; in experiment [1] (50 μM final drug concentration, 384-well format, […], read-out: AK-based Prestwick Library Screening Results, A. baumannii (increase in extracellular AK activity)) it was 0.3; in experiment [2] (50 μM final drug concentration, 384-well format, […], read-out: AK-based Prestwick Library Screening Results, S. aureus (increase in extracellular AK activity)) it was 0.2; in the experiment with K. pneumoniae (50 μM final drug concentration, 384-well format, […], read-out: AK-based Prestwick Library Screening Results, K. pneumoniae (increase in extracellular AK activity)), 0.3; in the experiment on E. coli (50 μM final drug concentration, 384-well format, […], read-out: AK-based Prestwick Library Screening Results, E. coli (increase in extracellular AK activity)), 0.3; with E. cloacae (read-out: AK-based Prestwick Library Screening Results, E. cloacae (increase in extracellular AK activity)), 0.4. Also, the fold induction at 50 µM with P. aeruginosa (50 μM final drug concentration, 384-well format, […], read-out: AK-based Prestwick Library Screening Results, P. aeruginosa (increase in extracellular AK activity)) amounted to 0.3.

As for `COc1cc(-c2ccc(N=Nc3ccc4c(S(=O)(=O)[O-])cc(S(=O)(=O)[O-])c(N)c4c3O)c(OC)c2)ccc1N=Nc1ccc2c(S(=O)(=O)[O-])cc(S(=O)(=O)[O-])c(N)c2c1O.[Na+].[Na+].[Na+].[Na+]` [Chicago sky blue 6B], the “AK-based Prestwick Library Screening Results, E. faecium (increase in extracellular AK activity)” value with E. faecium (planktonic E. faecium, 50 μM final drug concentration, cutoff for positive-scoring molecules 3-fold increase) was found to be 0.5. For the same compound, the “AK-based Prestwick Library Screening Results, A. baumannii (increase in extracellular AK activity)” value in experiment [1] (planktonic A. baumannii, 50 μM final drug concentration, cutoff for positive-scoring molecules 3-fold increase) was determined as 0.4. Besides, the “AK-based Prestwick Library Screening Results, S. aureus (increase in extracellular AK activity)” value in experiment [2] (planktonic S. aureus, 50 μM final drug concentration, cutoff for positive-scoring molecules 3-fold increase) turned out to be 0.0. In the experiment on K. pneumoniae (planktonic K. pneumoniae, 50 μM final drug concentration, cutoff for positive-scoring molecules 3-fold increase), the “AK-based Prestwick Library Screening Results, K. pneumoniae (increase in extracellular AK activity)” value came out at 0.3. Also, the “AK-based Prestwick Library Screening Results, E. coli (increase in extracellular AK activity)” value with E. coli (planktonic E. coli, 50 μM final drug concentration, cutoff for positive-scoring molecules 3-fold increase) is 0.5. Moreover, the “AK-based Prestwick Library Screening Results, E. cloacae (increase in extracellular AK activity)” value in the experiment on E. cloacae (planktonic E. cloacae, 50 μM final drug concentration, cutoff for positive-scoring molecules 3-fold increase) is reported as 0.9. In the experiment with P. aeruginosa (planktonic P. aeruginosa, 50 μM final drug concentration, cutoff for positive-scoring molecules 3-fold increase), the “AK-based Prestwick Library Screening Results, P. aeruginosa (increase in extracellular AK activity)” value was 0.4.

`CCCCOC(=O)c1ccc(N)cc1` [Butamben]: the fold induction at 50 µM with E. faecium (setting [3]) was determined as 0.8; in experiment [1] (setting [4]), 0.7; in experiment [2] (setting [5]), 1.1; with K. pneumoniae (setting [6]), 0.6; with E. coli (setting [7]), 0.8; in the experiment with E. cloacae (setting [8]), 1.7. In addition, the fold induction at 50 µM in the experiment with P. aeruginosa (setting [9]) turned out to be 0.9.

Consider `C[N+]12CCC(CC1)C(OC(=O)C(O)(c1ccccc1)c1ccccc1)C2` (centres unmarked) [Clidinium bromide], for which the fold induction at 50 µM with E. faecium (read-out: AK-based Prestwick Library Screening Results, E. faecium (fold increase in extracellular AK activity)) was 0.9; in experiment [1] (read-out: AK-based Prestwick Library Screening Results, A. baumannii (fold increase in extracellular AK activity)), 1.1; in experiment [2] (read-out: AK-based Prestwick Library Screening Results, S. aureus (fold increase in extracellular AK activity)), 0.9; in the experiment on K. pneumoniae (read-out: AK-based Prestwick Library Screening Results, K. pneumoniae (fold increase in extracellular AK activity)), 0.8; with E. coli (read-out: AK-based Prestwick Library Screening Results, E. coli (fold increase in extracellular AK activity)) it was 1; in the experiment with E. cloacae (read-out: AK-based Prestwick Library Screening Results, E. cloacae (fold increase in extracellular AK activity)) it was 1.3. The fold induction at 50 µM with P. aeruginosa (read-out: AK-based Prestwick Library Screening Results, P. aeruginosa (fold increase in extracellular AK activity)) amounted to 1.1.

On to `C=N[C@@H](C(=O)N[C@@H]1C(=O)N2[C@@H]1SC(C)(C)[C@@H]2C(=O)O)c1ccccc1` [Metampicillin sodium salt], for which the fold induction at 50 µM with E. faecium (planktonic E. faecium, 50 μM final drug concentration, 384-well, cutoff for positive-scoring molecules 3-fold increase, read-out: AK-based Prestwick Library Screening Results: E. faecium (increase in extracellular AK activity)) is 1.6; in experiment [1] (planktonic A. baumannii, 50 μM final drug concentration, 384-well, cutoff for positive-scoring molecules 3-fold increase, read-out: AK-based Prestwick Library Screening Results: A. baumannii (increase in extracellular AK activity)), 1.1; in experiment [2] (planktonic S. aureus, 50 μM final drug concentration, 384-well, cutoff for positive-scoring molecules 3-fold increase, read-out: AK-based Prestwick Library Screening Results: S. aureus (increase in extracellular AK activity)), 1.3; in the experiment on K. pneumoniae (planktonic K. pneumoniae, 50 μM final drug concentration, 384-well, cutoff for positive-scoring molecules 3-fold increase, read-out: AK-based Prestwick Library Screening Results: K. pneumoniae (increase in extracellular AK activity)), 1; in the experiment on E. coli (setting [10]), 16.8; in the experiment on E. cloacae (planktonic E. cloacae, 50 μM final drug concentration, 384-well, cutoff for positive-scoring molecules 3-fold increase, read-out: AK-based Prestwick Library Screening Results: E. cloacae (increase in extracellular AK activity)) it was 4.3. In addition, the fold induction at 50 µM in the experiment with P. aeruginosa (planktonic P. aeruginosa, 50 μM final drug concentration, 384-well, cutoff for positive-scoring molecules 3-fold increase, read-out: AK-based Prestwick Library Screening Results: P. aeruginosa (increase in extracellular AK activity)) stood at 1.3.

As to `CCN1C[C@]2(COC)[C@H](O)C[C@H](OC)[C@@]34[C@@H]5C[C@@]6(O)[C@H](OC(=O)c7ccccc7)[C@@H]5[C@@](OC(C)=O)([C@@H]([C@H](OC)[C@H]23)[C@@H]14)[C@@H](O)[C@@H]6OC` [Aconitine], the fold induction at 50 µM with E. faecium (planktonic E. faecium, 50 μM final drug concentration, […], read-out: AK-based Prestwick Library Screening Results, E. faecium (increase in extracellular AK activity)) was found to be 0.9; in experiment [1] (planktonic A. baumannii, 50 μM final drug concentration, […], read-out: AK-based Prestwick Library Screening Results, A. baumannii (increase in extracellular AK activity)) it was 0.6; in experiment [2] (planktonic S. aureus, 50 μM final drug concentration, […], read-out: AK-based Prestwick Library Screening Results, S. aureus (increase in extracellular AK activity)), 0.5; in the experiment with K. pneumoniae (planktonic K. pneumoniae, 50 μM final drug concentration, […], read-out: AK-based Prestwick Library Screening Results, K. pneumoniae (increase in extracellular AK activity)), 0.5; in the experiment on E. coli (planktonic E. coli, 50 μM final drug concentration, […], read-out: AK-based Prestwick Library Screening Results, E. coli (increase in extracellular AK activity)), 0.6; in the experiment on E. cloacae (planktonic E. cloacae, 50 μM final drug concentration, […], read-out: AK-based Prestwick Library Screening Results, E. cloacae (increase in extracellular AK activity)), 0.6. Also, the fold induction at 50 µM in the experiment on P. aeruginosa (planktonic P. aeruginosa, 50 μM final drug concentration, […], read-out: AK-based Prestwick Library Screening Results, P. aeruginosa (increase in extracellular AK activity)) worked out at 0.5.
